Results published in PMC10847306, “The antibacterial activity and mechanism of a novel peptide MR-22 against multidrug-resistant Escherichia coli” (Frontiers in Cellular and Infection Microbiology, 2024).

Tests used:
[1] = system: E. coli ATCC 25922; test: microbe, parasite or virus in culture; conditions: ATCC 25922, 18 h
Experimental: (§1) The MIC were determined by a micro dilution method in Mueller-Hinton broth (MHB) ([Cuenca-Estrella et al., 2010]). The final concentration of bacterial suspension in MHB were 1.0×10^6 CFU/mL. The final concentration of MR-22 ranged 1 ~ 256 μg/mL in 96 wells plate broth at 37°C for 16~18 h. Imipenem was employed as positive control, bacterial grown without treatment as negative control and MHB as blank control. MIC determination was performed by reading the OD600 nm. Take 100 μL samples in holes that have never seen bacterial growth and place them on the LB agar board. The concentration of MR-22 with no bacterial growth was defined as the MBC.

[2] = system: E. coli E19; test: Mice peritonitis model; assay type: in vivo; conditions: C57BL/6J mice
Experimental: This study utilized female C57BL/6J mice aged 6-8 weeks, weight range of 18-20 g, which were obtained from SPF Biotechnology Co., Ltd (Beijing, China). The animals were housed under maintained on a standard 12 h light/12 h dark cycle. All animal experiments were conducted in accordance with the Ethical Principles in Animal Research adopted by Guizhou Medical University and were approved by the Institutional Animal Care and Use Committee.
To evaluate the in vivo efficacy of MR-22, we used a mice peritonitis model. A total of 60 mice were divided into three groups: treatment group (10 mg/kg MR-22, intraperitoneal injection), positive control group (10 mg/kg imipenem, intraperitoneal injection), and normal control group (PBS, intraperitoneal injection). Peritonitis was induced by intraperitoneal injection of 1.0 × 10^8 CFU bacterial inoculum in 0.2 mL of E. coli E19. Survival rates were recorded every 12 h for 7 days.
To study the protective effects of MR-22, 10 mice in each group were sacrificed, and peritoneal lavage fluid, blood, liver, and kidney were collected 36 h after administration. The number of colonies in peritoneal lavage fluid and blood were determined by culturing on LB agar, while the tissues were fixed in 4% paraformaldehyde and subjected to hematoxylin and eosin staining to study the morphology.

[3] = system: E. coli ATCC 25922; assay type: cell-based, Escherichia coli
Experimental: (§2) In order to study the activity of MR-22 in high-salt concentration, mice serum, different temperatures or trypsin, MIC once again conducted tests as described above.
[…] The resulting solutions were subjected to MIC testing to evaluate any alterations in the antimicrobial activity of MR-22.
(§3) To assess the thermal stability of MR-22, it was subjected to various temperatures (40°C, 60°C, 80°C, and 100°C) for 30 min. Then, reducing to room temperature, and the MIC was subsequently determined.
(§4) MR-22 was mixed with a solution containing 1 μg/ml of trypsin and incubated at 37°C for 2 to 12h. Then, trypsin inactivation was carried out at 60°C for 30 min. The antimicrobial activity of the samples was tested to assess the activity of MR-22 and its analogs after the treatment by trypsin. The untreated MR-22 served as the control group for comparative analysis.

[4] = system: E. coli ATCC 25922 and E19; test: Reactive oxygen species measurement (DCFH-DA); assay type: cell-based, Escherichia coli; conditions: DCFH-DA 10 μM, MR-22 1, 2, 4 × MIC, 1 h, 37°C; ex 488/em 525 nm
Experimental: The fluorescence probe 2’,7’-dichlorodihydrofluorescein diacetate (DCFH-DA) was used to measure the intracellular generation of ROS. The bacterial suspension (1.0 × 10^6 CFU/mL) were mixed with DCFH-DA (the final concentration of 10 μM) and incubated for at 37°C 30 min in the dark. After incubation, the suspensions were treated with MR-22 (1, 2, 4 × MIC) at the indicated concentrations for 1 h at 37°C. The fluorescence intensity was evaluated using a multi-function fluorescent enzyme marker with an excitation wavelength of 488 nm and an emission wavelength of 525 nm. N-acetylcysteine (NAC) at a concentration of 24 mM was employed as a control agent for the purpose of quenching the production of reactive oxygen species.

[5] = system: E. coli clinical strain E09; test: microbe, parasite or virus in culture; conditions: clinical strain E09, 18 h
Experimental: (§5) The clinical strains used in this study were obtained from a tertiary healthcare facility located in Guiyang, a city situated within the Guizhou Province of China. The E. coli ATCC 25922 was obtained from the Key and Characteristic Laboratory of Modern Pathogen Biology at Guizhou Medical University in Guiyang, China. All strains were stored at –80°C in LB medium and routinely cultured at LB medium at 37°C.
as §1

[6] = system: E. coli clinical strain E11; test: microbe, parasite or virus in culture; conditions: clinical strain E11, 18 h
Experimental: as §5, §1

[7] = system: E. coli clinical strain E22; test: microbe, parasite or virus in culture; conditions: clinical strain E22, 18 h
Experimental: as §5, §1

[8] = system: E. coli clinical strain E19; test: microbe, parasite or virus in culture; conditions: clinical strain E19, 18 h
Experimental: as §5, §1

[9] = system: E. coli clinical strain E05; test: microbe, parasite or virus in culture; conditions: clinical strain E05, 18 h
Experimental: as §5, §1

[10] = system: E. coli clinical strain E15; test: microbe, parasite or virus in culture; conditions: clinical strain E15, 18 h
Experimental: as §5, §1

[11] = system: E. coli E19; assay type: cell-based, Escherichia coli
Experimental: as §2
E. coli ATCC 25922 and E19 were incubated in different concentrations MR-22 in MHB with 150 mM NaCl, 2 mM CaCl2, 10% mice serum and 10% FBS in 96-well plates and cultured at 37°C for 16 h. The resulting solutions were subjected to MIC testing to evaluate any alterations in the antimicrobial activity of MR-22.
as §3, §4

[12] = system: E. coli ATCC 25922 and clinically drug resistant isolated strains; test: microbe, parasite or virus in culture; assay type: cell-based, Escherichia coli; conditions: 18 h
Experimental: as §1

H-MAKRRKKAKKKAKKAKKRRRRR-NH2 [MR-22]
4 µg/mL: MBC [10] | MIC [10]
40%: 72-h survival rate ([2]; peritonitis by 1.0 × 10^8 CFU E. coli E19 i.p., 10 mg/kg intraperitoneal injection, infected group 0%)
64 µg/mL: MIC, 10% Serum ([3]; ATCC 25922, 16 h)
256 µg/mL: MIC, 150 μM Na^+ ([3]; ATCC 25922, 16 h) | MIC, 150 μM Na^+ ([11]; E19, 16 h)
7.23 ± 0.36 Log10CFU/mL: bacterial content in the peritoneal lavage fluid ([2]; E19 peritonitis, 10 mg/kg 1 h after infection, after 36 h, ten mice per group, control group 8.73 ± 0.38)
16 µg/mL: MBC [1] | MIC [1] | MIC, 10% FBS ([3]; ATCC 25922, 16 h) | MIC, 40°C 30 min ([3]; ATCC 25922, 16 h) | MIC, 60°C 30 min ([3]; ATCC 25922, 16 h) | MIC, 80°C 30 min ([3]; ATCC 25922, 16 h) | MIC, 100°C 30 min ([3]; ATCC 25922, 16 h) | MIC, Control ([3]; ATCC 25922, 16 h) | MBC [5] | MIC [5] | MBC [6] | MIC [6] | MBC [7] | MIC [7] | MBC [9] | MIC [9]
32 µg/mL: MBC [8] | MIC [8] | MIC, 10% FBS ([11]; E19, 16 h) | MIC, 40°C 30 min ([11]; E19, 16 h) | MIC, 60°C 30 min ([11]; E19, 16 h) | MIC, 80°C 30 min ([11]; E19, 16 h) | MIC, 100°C 30 min ([11]; E19, 16 h) | MIC, Control ([11]; E19, 16 h)
128 µg/mL: MIC, 10% Serum ([11]; E19, 16 h)
4 ~ 32 μg/mL: MIC over all strains tested [12]
increased significantly: ROS accumulation in bacteria [4]
>256 µg/mL: MIC, 1 μg/mL Trypsin ([3]; E. coli ATCC 25922, MR-22 incubated with 1 μg/ml trypsin at 37°C (2 to 12 h), trypsin inactivated 60°C 30 min) | MIC, 1 μg/mL Trypsin ([11]; E. coli E19, MR-22 incubated with 1 μg/ml trypsin at 37°C (2 to 12 h), trypsin inactivated 60°C 30 min)
